Experiment [1] relates to HSV-1. In words: Drug sensitivity against HSV-1 in Vero cells at different viral passages. The class given is cell-based. The following applies: for IC50: Human alphaherpesvirus 1, Vero. From the text:
Virus which recovered from medium of each passage at IC50 drug concentration were used to infect the subsequent passage of the cells.

The next experiment deals with HSV-Sm44-ACVg. In words: Drug sensitivity against ACV sensitive strain of HSV-1. The class given is cell-based. The following applies: Human alphaherpesvirus 1, read-out: IC50, HSV-Sm44-ACVg.
The test system of experiment [2] is HSV-1. In words: Topical treatment of HSV-1 infected skin of guinea pigs. Type of experiment: in vivo. The following applies: guinea pig; for suppression of HSV-1 replication in infected skin: topical five times per day for five days, ABPS 2 and 4 mg/ml, tetramethoxyl NDGA 60 mg/ml, acyclovir 60 mg/ml. On the procedure:
It is also noted that tetramethoxyl NDGA 4N has been used in an animal system, i.e. to treat HSV infected skin of guinea pigs.
Two male guinea pigs (350 gm body weight) were used in the guinea pig experiment. The back skin of the animal was shaved and equally divided into six patches. Each skin patch was pinched with seven-pin needles and HSV-1 suspension was applied topically to infect each punched area. Twenty-four hours after infection, three agents (ABPS, 2 mg/ml, ABPS 4 mg/ml, tetramethoxyl NDGA, 4N 60 mg/ml and acyclovir 60 mg/ml) were applied to the infected areas five times per day for five days. Picture (FIG. 8) was taken 96 hours following infection.

The next experiment relates to HSV-18m44-CV4r. In words: Drug sensitivity against ACV resistant strain of HSV-1. The class given is cell-based.
Experiment [3] has as its system Tat regulated transactivation (Tat-TRS) of HIV-1 LTR promoter. In words: Secreted alkaline phosphatase (SEAP) assay for Tat transactivation in cotransfected COS cells. Type of experiment: cell-based. The conditions noted are these: for EC50: Human immunodeficiency virus 1, COS, 48 h; for Inhibition of Tat-induced SEAP expression: read at 30 minutes. From the text: To screen for inhibitors for Tat regulated transactivation (Tat-TRS), the secreted placental alkaline phosphatase (SEAP) reporter gene is put under the control of HIV-1 LTR promoter in the plasmid pBC12HIV/SEAP. The Tat-coded activity is supplied by a second plasmid construct pBC12/CMV/t2. […] An inhibitor should cause reduction of the SEAP activity which is due to inhibition of the expression of the SEAP mRNA via transactivation of the HIV-1 LTR promoter by Tat protein (Tat-TRS).
For the SEAP assay, test materials were dissolved in 10% DMSO solution made in calcium/magnesium-free PBS. The suspension was centrifuged and the stock solution (10 mg/ml) was filter-sterilized using a Millex®-GS […] filter (Millipore). Appropriate dilutions of the stock solution were prepared in a final DMSO concentration of 0.2% in PBS to obtain the various concentrations of test compounds.
Briefly, a day before DNA transfection, Linbro® 24 flat bottom well of 17-mm diameter plates were pretreated with 0.5 ml sterile solution of 0.1% gelatin. The plates were kept in the hood for 1 hour (all transfection steps were performed in the hood, unless otherwise stated). The gelatin solution was aspirated and the plates were washed with 0.5 ml of IMDM supplemented with 10% fetal calf serum and antibiotics (complete medium). […] DNA transfection was performed at 30-50% cell confluency. The stock solution of the Transfectam reagent, DOGS, was prepared according to the manufacturer's advice at 1 mg/0.380 ml ([…] or 3.4 mM) in 10% (v/v) ethanol in distilled water.
The transfection cocktail consisted of two solutions prepared in sterile tubes: • a) Solution A contained a sterile 150 mM NaCl solution+plasmid DNAs (non selected/selected gene in 2:1 ratio): 0.35 μg of pBC12/HIV/SEAP per well+0.175 μg of pBC12/CMB/t2 (coding for Tat function) per well. • b) Solution B Contained an equal volume of 150 mM NaCl and a volume of Transfectame determined to be 6 times the total amount of DNAS. Solutions A and B were homogenized and immediately mixed.
Ten minutes were allowed for the reaction to proceed. Meanwhile, the growth medium was removed from the subconf luent COS cells and 300 μl (100 μl of complete IMDM+200 μl serum-free medium) were added to each well. The transfection cocktail was dispensed to the wells in equal volume. Control samples containing no DNA were similarly treated and received sterile 150 mM NaCl solution alone. All samples were incubated for 10 and 12 hours after which 700 μl of complete growth medium were added. Test compounds prepared in 5% DMSO/Ca-Mg-free PBS (for non-water-soluble materials) were immediately added at various concentrations to the wells. Drug-untreated control samples received 5% DMSO/PBS solution alone (final DMSO concentration of 0.2%). All samples were then incubated for an additional 48 hours after which 300 μl of each culture supernatant was removed for SEAP analysis.
Briefly, a 250-μl aliquot was removed from COS cell culture supernatants, heated at 65° C. for 5 minutes to selectively inactivate endogenous phosphatase (SEAP is heat stable) and centrifuged in a microfuge for 2 minutes. One hundred μl of 2×SEAP assay buffer (1.0 M diethanolamine, pH 9.8; 0.5 mM MgCl2; 10 mm L-homoarginine) were added to 100-μl aliquot of the samples. The solution was mixed and transferred into a 96-well flat-bottom culture dish (Corning). Twenty μl of pre-warmed substrate solution (120 mM p-nitrophenylphosphate dissolved in 1×SEAP assay buffer) were dispensed with a multipipeter into each well containing the reaction mixture. A405 of the reaction was read at 5-minute intervals at 37° C. for 60 minutes using an EL340i microplate reader (Bio-tek Instruments, Inc.) with 5-second automatic shakings before each reading. The change in absorbance was plotted against time in the standard assay of SEAP induction.

Another experiment deals with uninfected CEM-SS cells. In words: Soluble-formazan (XTT) assay, viability of uninfected CEM-SS cells. The class given is cell-based. The conditions noted are these: Homo sapiens, read-out: IC50, inhibitory or toxic concentration reducing XTT formazan production in uninfected cultures to 50%.
Another experiment deals with HIV-1. In words: microbe, parasite or virus in culture. The following applies: Human immunodeficiency virus 1, CEM-SS, read-out: EC50, concentration that protects XTT formazan production in infected culture to 50% of uninfected, untreated cells. (Tetrazolium assays rely on reduction of a dye to a coloured formazan, in cell work by metabolically active cells.)
Experiment [4] has as its system HSV-1. In words: Inhibition of HSV-1 replication in Vero cells. The conditions noted are these: Human alphaherpesvirus 1, Vero. The class given is cell-based.
A further experiment concerns HSV-1 ICP4. In words: Inhibition of HSV-1 ICP4 transactivation in Vero cells. The class given is cell-based. The following applies: Human alphaherpesvirus 1, Vero.
For another experiment, the system named is Vero cells. In words: Inhibition of growth of Vero cells. The class given is cell-based. The following applies: Chlorocebus sabaeus.
The mark [5] stands for this setting: read-out: IC50 against HSV-1 in Vero Cells, Passage 1.
Where [6] appears, read: read-out: IC50 against HSV-1 in Vero Cells, Passage 2.
Where [7] appears, read: read-out: IC50 against HSV-1 in Vero Cells, Passage 3.
[8] abbreviates: read-out: IC50 against HSV-1 in Vero Cells, Passage 4.
Where [9] appears, read: read-out: IC50 against HSV-1 in Vero Cells, Passage 5.
[10] abbreviates: read-out: IC50 against HSV-1 in Vero Cells, Passage 10.
Where [11] appears, read: Human alphaherpesvirus 1, read-out: IC50, HSV-18m44-CV4r.
[12] abbreviates: read-out: EC50 (concentration exhibiting 50% inhibition) of Tat regulated HIV transactivation, SEAP expression.
[13] abbreviates: read-out: EC50 of Tat regulated HIV transactivation, SEAP expression.
[14] abbreviates: Mal 4 at 9.5 μm, NDGA at 9.9 μm.
The mark [15] stands for this setting: Mal 4 at 31.3 μm, NDGA at 32.6 μm.
Where [16] appears, read: Mal 4 at 62.7 μm, NDGA at 65.2 μm.

Where “and” joins values, the source holds several entries; their conditions need not be identical. Equal entries are not always repeated. Where two headings read alike, the source gives them in different places.

For orientation: inhibition means the change of the read-out against control, counted positive when it falls.

As for `Nc1nc2c(ncn2COCCO)c(=O)[nH]1` [ACV, acyclovir, reference compound], the IC50 in the experiment on HSV-1 [1] (setting [5]) is 7.5 µM; in the experiment with HSV-1 [1] (setting [6]), 37.8 µM; in the experiment on HSV-1 [1] (setting [7]), > 88.8 µM; in the experiment on HSV-1 [1] (setting [8]), 138 µM; in the experiment with HSV-1 [1] (setting [9]) it was > 220 µM; in the experiment on HSV-1 [1] (setting [10]) it was 440 µM. In addition, the IC50 in the experiment on HSV-1 [1] (read-out: concentration required to inhibit HSV-1, 10th passage) is 440 µM; in the experiment on HSV-1 [1] (read-out: concentration required to inhibit HSV-1, first passage), 7.5 µM; in the experiment on HSV-Sm44-ACVg, < 6.9 µM; in the experiment with HSV-18m44-CV4r (setting [11]), 118 µM. The “suppression of HSV-1 replication in infected skin” value with HSV-1 [2] is given as “effective”.
For `COc1ccc(CC(C)C(C)Cc2ccc(O)c(O)c2)cc1O` (stereo not shown) [Mal 4, 1-(3,4-dihydroxyphenyl)-4-(3-hydroxy-4-methoxyphenyl)-2,3-dimethylbutane], the EC50 in [3] (setting [12]) was 8 µg/mL; in experiment [3] (setting [13]) it was 25 µM; with HIV-1, 4.25 µg/mL and 13.4 µM. The “Inhibition of Tat-induced SEAP expression” value in experiment [3] (setting [14]) is given as 13.6%; in [3] (setting [15]), 60.4%; in experiment [3] (setting [16]) it was 92%; in [3] (Mal 4 at 95 μm, NDGA at 99 μm), 100%. Besides, the IC50 with uninfected CEM-SS cells is 100 µg/mL and 325 µM.
For the compound `CC(Cc1ccc(O)c(O)c1)C(C)Cc1ccc(O)c(O)c1` (stereo not shown) [NDGA, 1,4-bis-(3,4-dihydroxyphenyl)-2,3-dimethylbutane], the EC50 in [3] (setting [12]) came out at 6 µg/mL; in [3] (setting [13]) it was 20 µM. Moreover, the “Inhibition of Tat-induced SEAP expression” value in [3] (setting [14]) is on record as 17.0%; in [3] (setting [15]) it was 73.8%; in experiment [3] (setting [16]) it was 88.1%; in experiment [3] (Mal 4 at 95 μm, NDGA at 99 μm), 92.9%.
With `COc1ccc(C[C@@H](C)[C@@H](C)Cc2ccc(OC)c(OC)c2)cc1OC` [Tetramethoxyl NDGA, tetramethoxyl nordihydroguaiaretic acid], the IC50 with HSV-1 [1] (read-out: IC50 against HSV-1, essentially the same from first passage to tenth passage, first to tenth passage in vero cells) is ~10 µM; in the experiment with HSV-1 [1] (setting [5]), 11.7 µM; with HSV-1 [1] (setting [6]), 4.4 µM; in the experiment with HSV-1 [1] (setting [7]) it was 8.2 µM; with HSV-1 [1] (setting [8]) it was 5.9 µM; in the experiment with HSV-1 [1] (setting [9]), 9.9 µM. Besides, the IC50 in the experiment with HSV-1 [1] (setting [10]) turned out to be 10 µM; in the experiment on HSV-Sm44-ACVg, 6.9 µM; in the experiment with HSV-1 [4], 7.7 µM; in the experiment on HSV-1 ICP4, 33 µM; with HSV-18m44-CV4r (setting [11]), 6.9 µM; in the experiment on HSV-18m44-CV4r (Human alphaherpesvirus 1, read-out: IC50 against acyclovir resistant strain (HSV-1 SM44-CV4r)) it was 6.9 µM. The compound also yielded an IC50 with Vero cells of 142 µM. In addition, the “drug resistance of HSV virus toward the drug” value in the experiment on HSV-1 [1] (following ten viral passages in vero cells) is reported as “showed no drug resistance”. Moreover, in the experiment on HSV-1 [4] (0.437 μM), the inhibition at 0.437 µM is < 0%. For the same compound, the inhibition at 0.875 µM in the experiment on HSV-1 [4] (0.875 μM) was < 0%. The inhibition at 1.75 µM in the experiment with HSV-1 [4] (1.75 μM) is < 0%. Further, in the experiment with HSV-1 [4] (3.5 μM), the inhibition at 3.5 µM stood at 20%. The compound also had an inhibition at 7 µM in the experiment with HSV-1 [4] (7 μM) of 40%. In the experiment on HSV-1 [4] (14 μM), this compound registered an inhibition at 14 µM of 97.5%. Moreover, the “HSV-1 growth at infected skin areas” value in the experiment on HSV-1 [2] (60 mg/ml, daily topical treatment, five days) was “eliminated HSV-1 growth completely”. The “suppression of HSV-1 replication in infected skin” value in the experiment on HSV-1 [2] was “effective”. Also, in the experiment with HSV-1 ICP4 (20 μM), the inhibition at 20 µM worked out at 8%. 30 µM produced 30% inhibition with HSV-1 ICP4 (30 μM). For the same compound, the inhibition at 40 µM in the experiment with HSV-1 ICP4 (40 μM) was 35%. Besides, 50 µM produced 52% inhibition in the experiment on HSV-1 ICP4 (50 μM). Besides, in the experiment on HSV-1 ICP4 (60 μM), the inhibition at 60 µM worked out at 64%. In addition, the inhibition at 70 µM is 68% with HSV-1 ICP4 (70 μM) and 9.55% in the experiment on Vero cells (70 μM). Moreover, 80 µM produced 78% inhibition in the experiment on HSV-1 ICP4 (80 μM). In addition, in the experiment with Vero cells (4.37 μM), at 4.37 µM the inhibition was 1.27%. In the experiment with Vero cells (8.75 μM), this compound displayed an inhibition at 8.75 µM of 3.18%. In the experiment on Vero cells (17.5 μM), this compound registered an inhibition at 17.5 µM of 7.64%. In the experiment with Vero cells (35 μM), this compound came in with an inhibition at 35 µM of 7.64%. The compound further gave an inhibition at 140 µM in the experiment with Vero cells (140 μM) of 44%. The same compound yielded an inhibition at 280 µM in the experiment with Vero cells (280 μM) of 79.6%.

(Values after patent USRE40246E1, “Method for the suppression of viral growth” (John Hopkins University, priority 1994, dated 2008).)
